Results taken from paper PMC2965769 (PLoS Pathogens, 2010).
*: point of attachment. X2 = CC(C)CCC[C@@H](C)[C@H]1CC[C@H]2[C@@H]3CC=C4C[C@@H](OC(=O)CCOCCOCCOCCOCCNC(=O)C*)CC[C@]4(C)[C@H]3CC[C@]12C; X1 = CC(C)CCC[C@@H](C)[C@H]1CC[C@H]2[C@@H]3CC=C4C[C@@H](OC(=O)C*)CC[C@]4(C)[C@H]3CC[C@]12C

Test system: NiV G/F pseudotyped viruses
Conditions: 24 h

Substance	IC50
Ac-VALDPIDISIVLNKAKSDLEESKEWIRRSNQKLDSIGSGSGC(X1)-NH2 (N-terminus and C-terminus assumed) [V-chol]	~0.02 nM
Ac-VALDPIDISIVLNKAKSDLEESKEWIRRSNQKLDSIGSGSGC(X2)-NH2 (N-terminus and C-terminus assumed) [V-PEG4-chol]	~0.02 nM
